The values below are quoted from earlier work in US12251380B2, “Depot systems comprising cariprazine or salts thereof” (Mapi Pharma Ltd., priority 2022, dated 2025).

Read-outs that look alike come from different tables or passages of the source.

For this data set the following is noted: schizophrenic patients.

`CN(C)C(=O)N[C@H]1CC[C@H](CCN2CCN(c3cccc(Cl)c3Cl)CC2)CC1` [Cariprazine, trans-N-{4-[2-[4-(2,3-dichlorophenyl)piperazine-1-yl]ethyl]cyclohexyl}-N′,N′-dimethylurea]: the elimination half-life (oral Cariprazine) was 2 to 5 days.
On to `NC(=O)NC1CCC(CCN2CCN(c3cccc(Cl)c3Cl)CC2)CC1` (centres unmarked) [didesmethyl Cariprazine], for which, for the setting “active metabolite after oral Cariprazine”, the elimination half-life is reported as 2-3 weeks.
